US20150148551A1, “GENISTEIN FOR REDUCING LEVELS OF STORAGE COMPOUNDS IN THE TREATMENT AND/OR PREVENTION OF LYSOSOMAL STORAGE DISEASES (LSDS)” (3G THERAPEUTICS, INC., priority 2012, published 2015)

Legend:
Assay type in all cases: cell-based, human
CTSA = test: DNA microarray, CTSA expression in fibroblasts exposed to genistein; settings: for CTSA fold change Average: 48 h vs DMSO
Protocol: (§1) The experiments were conducted to characterise the transcriptomic profile of human fibroblast cells exposed to genistein, and in particular to determine the expression of genes encoding lysosomal enzymes involved in metabolism (i.e. synthesis and degradation) of organic substances. The absence or deficiency of these enzymes' activity is responsible for occurrence of various lysosomal storage diseases (LSD) (including MPS). The tested hypothesis assumed that genistein influences the expression of many genes, among which there are genes coding for enzymes required in metabolism of compounds, which are pathologically stored in LSD. The results provide important information regarding genistein action on the molecular level within the range of gene expression modulation by this substance. The experiment was conducted in biological quintuplicates. Human dermal fibroblasts (HDFa) were exposed in vitro for 1, 24 or 48 hours to: 30, 60 or 100 μM of genistein; 0.05% DMSO (K1); or were untreated (control cells) (K2), and total RNA was isolated and analysed.
(§2) Fibroblast cells were grown in Dulbecco (DMEM) medium supplemented with 10% fetal bovine serum (FBS) with the addition of 1% antibiotics and anti-fungal agents at 37° C. in humidified atmosphere of 5% CO2, until the required confluency was obtained.
(§3) To determine the effect of tested compound on the transcriptom of the fibroblast cells, the growth medium was replaced with fresh medium, either non-supplemented (0.05% DMSO), or containing genistein (30, 60 or 100 μM, in 0.05% DMSO). The exposure was done for 1, 24 or 48 hours.
(§4) Total RNA was isolated from fibroblasts using High Pure RNA Isolation Kit according to the protocol and then it was quantitatively evaluated using Quant-It™ RiboGreen® Assay Kit.
(§5) Biotinylated cRNA was prepared using Ambion Total PrepAmp Kit for Illumina arrays.
(§6) Standard hybridization and quantitative image analysis procedures—Illumina hybridization protocol and Illumina scanning protocol, were used.
(§7) Processing of the results was done during data definition, including: background correction (using background subtraction method), normalization (using quantile normalization algorithm with Illumina GenomeStudio software package: gene expression module version 1.9.0) and summarization (using method, which sums the values of signal intensities from a set of probes).

NAGLU = test: DNA microarray, NAGLU expression in fibroblasts exposed to genistein; settings: for NAGLU fold change Average: 48 h vs DMSO
Protocol: as §1, §2, §3, §4, §5, §6, §7

GAPDH = test: DNA microarray, GAPDH reference gene expression in fibroblasts exposed to genistein
Protocol: as §1, §2, §3, §4, §5, §6, §7

XYLT1 = test: DNA microarray, XYLT1 expression in fibroblasts exposed to genistein
Protocol: as §1, §2, §3, §4, §5, §6, §7

TPP1 = test: DNA microarray, TPP1 expression in fibroblasts exposed to genistein; settings: for TPP1 fold change Average: 48 h vs DMSO
Protocol: as §1, §2, §3, §4, §5, §6, §7

ARSA = test: DNA microarray, ARSA expression in fibroblasts exposed to genistein; settings: for ARSA fold change Average: 48 h vs DMSO
Protocol: as §1, §2, §3, §4, §5, §6, §7

IDUA = test: DNA microarray, IDUA expression in fibroblasts exposed to genistein; settings: for IDUA fold change Average: 48 h vs DMSO
Protocol: as §1, §2, §3, §4, §5, §6, §7

O=c1c(-c2ccc(O)cc2)coc2cc(O)cc(O)c12 [genistein, 4′,5,7-trihydroxy-3-phenylchromen-4-one]
CTSA fold change Average 1h30/1hK1 (CTSA; 30 μM, 1 h vs 0.05% DMSO): 1.0199 fold change | CTSA fold change Average (CTSA; 30 μM): 1.3019 fold change | CTSA fold change Average 1h60/1hK1 (CTSA; 60 μM, 1 h vs 0.05% DMSO): 0.9816 fold change | CTSA fold change Average (CTSA; 60 μM): 1.637 fold change | CTSA fold change Average 1h100/1hK1 (CTSA; 100 μM, 1 h vs 0.05% DMSO): 0.9643 fold change | CTSA fold change Average (CTSA; 100 μM): 1.571 fold change | NAGLU fold change Average 1h30/1hK1 (NAGLU; 30 μM, 1 h vs 0.05% DMSO): 1.055 fold change | NAGLU fold change Average (NAGLU; 30 μM): 1.1022 fold change | NAGLU fold change Average 1h60/1hK1 (NAGLU; 60 μM, 1 h vs 0.05% DMSO): 1.061 fold change | NAGLU fold change Average (NAGLU; 60 μM): 1.231 fold change | NAGLU fold change Average 1h100/1hK1 (NAGLU; 100 μM, 1 h vs 0.05% DMSO): 1.037 fold change | NAGLU fold change Average (NAGLU; 100 μM): 1.303 fold change | GAPDH fold change Average 1h30/1hK1 (GAPDH; 30 μM, 1 h vs 0.05% DMSO): 0.9592 fold change | GAPDH fold change Average 24h30/24hK1 (GAPDH; 30 μM, 24 h vs 0.05% DMSO): 0.93 fold change | GAPDH fold change Average 48h30/48hK1 (GAPDH; 30 μM, 48 h vs 0.05% DMSO): 0.9412 fold change | GAPDH fold change Average 1h60/1hK1 (GAPDH; 60 μM, 1 h vs 0.05% DMSO): 0.9817 fold change | GAPDH fold change Average 24h60/24hK1 (GAPDH; 60 μM, 24 h vs 0.05% DMSO): 0.8905 fold change | GAPDH fold change Average 48h60/48hK1 (GAPDH; 60 μM, 48 h vs 0.05% DMSO): 0.8088 fold change | GAPDH fold change Average 1h100/1hK1 (GAPDH; 100 μM, 1 h vs 0.05% DMSO): 0.9385 fold change | GAPDH fold change Average 24h100/24hK1 (GAPDH; 100 μM, 24 h vs 0.05% DMSO): 0.9556 fold change | GAPDH fold change Average 48h100/48hK1 (GAPDH; 100 μM, 48 h vs 0.05% DMSO): 0.8652 fold change | XYLT1 fold change Average 1h30/1hK1 (XYLT1; 30 μM, 1 h vs 0.05% DMSO): 1.058 fold change | XYLT1 fold change Average 24h30/24hK1 (XYLT1; 30 μM, 24 h vs 0.05% DMSO): 0.8611 fold change | XYLT1 fold change Average 48h30/48hK1 (XYLT1; 30 μM, 48 h vs 0.05% DMSO): 0.9745 fold change | XYLT1 fold change Average 24h60/24hK1 (XYLT1; 60 μM, 24 h vs 0.05% DMSO): 0.6217 fold change | XYLT1 fold change Average 1h100/1hK1 (XYLT1; 100 μM, 1 h vs 0.05% DMSO): 1 fold change | XYLT1 fold change Average 24h100/24hK1 (XYLT1; 100 μM, 24 h vs 0.05% DMSO): 0.6324 fold change | XYLT1 fold change Average 48h100/48hK1 (XYLT1; 100 μM, 48 h vs 0.05% DMSO): 0.921 fold change | TPP1 fold change Average 1h30/1hK1 (TPP1; 30 μM, 1 h vs 0.05% DMSO): 1.0655 fold change | TPP1 fold change Average (TPP1; 30 μM): 1.2672 fold change | TPP1 fold change Average 1h60/1hK1 (TPP1; 60 μM, 1 h vs 0.05% DMSO): 1.001 fold change | TPP1 fold change Average (TPP1; 60 μM): 1.505 fold change | TPP1 fold change Average 1h100/1hK1 (TPP1; 100 μM, 1 h vs 0.05% DMSO): 1.031 fold change | TPP1 fold change Average (TPP1; 100 μM): 1.603 fold change | ARSA fold change Average 1h30/1hK1 (ARSA; 30 μM, 1 h vs 0.05% DMSO): 0.9099 fold change | ARSA fold change Average 1h60/1hK1 (ARSA; 60 μM, 1 h vs 0.05% DMSO): 0.9092 fold change | ARSA fold change Average (ARSA; 60 μM): 1.218 fold change | ARSA fold change Average 1h100/1hK1 (ARSA; 100 μM, 1 h vs 0.05% DMSO): 0.963 fold change | ARSA fold change Average (ARSA; 100 μM): 1.526 fold change | IDUA fold change Average 1h30/1hK1 (IDUA; 30 μM, 1 h vs 0.05% DMSO): 0.8853 fold change | IDUA fold change Average (IDUA; 30 μM): 1.1407 fold change | IDUA fold change Average 1h60/1hK1 (IDUA; 60 μM, 1 h vs 0.05% DMSO): 0.9788 fold change | IDUA fold change Average (IDUA; 60 μM): 1.212 fold change | IDUA fold change Average 1h100/1hK1 (IDUA; 100 μM, 1 h vs 0.05% DMSO): 0.9034 fold change | IDUA fold change Average (IDUA; 100 μM): 1.309 fold change
